From patent US10913736B2 (UNIVERSITY OF WASHINGTON, priority 2014, dated 2021) come the findings set out here.

The structures appear in SMILES notation.

The target of one experiment is MetRS (T. brucei) (Trypanosoma brucei brucei, UniProt Q38C91). As to the kind of experiment: MetRS (T. brucei) ATP depletion assay using Kinase-Glo. Type of experiment: biochemical. (In general: Kinase-Glo reads ATP consumption through a luciferase reaction.)
The subject of the next experiment is T. brucei. Put plainly: Growth inhibition assay of T. brucei cell cultures (Alamar Blue, 48 h). In kind it is cell-based. To be noted: Trypanosoma brucei; read-out: B) T. brucei EC50.

Chain of MetRS (T. brucei) (Q38C91 entry or part of it): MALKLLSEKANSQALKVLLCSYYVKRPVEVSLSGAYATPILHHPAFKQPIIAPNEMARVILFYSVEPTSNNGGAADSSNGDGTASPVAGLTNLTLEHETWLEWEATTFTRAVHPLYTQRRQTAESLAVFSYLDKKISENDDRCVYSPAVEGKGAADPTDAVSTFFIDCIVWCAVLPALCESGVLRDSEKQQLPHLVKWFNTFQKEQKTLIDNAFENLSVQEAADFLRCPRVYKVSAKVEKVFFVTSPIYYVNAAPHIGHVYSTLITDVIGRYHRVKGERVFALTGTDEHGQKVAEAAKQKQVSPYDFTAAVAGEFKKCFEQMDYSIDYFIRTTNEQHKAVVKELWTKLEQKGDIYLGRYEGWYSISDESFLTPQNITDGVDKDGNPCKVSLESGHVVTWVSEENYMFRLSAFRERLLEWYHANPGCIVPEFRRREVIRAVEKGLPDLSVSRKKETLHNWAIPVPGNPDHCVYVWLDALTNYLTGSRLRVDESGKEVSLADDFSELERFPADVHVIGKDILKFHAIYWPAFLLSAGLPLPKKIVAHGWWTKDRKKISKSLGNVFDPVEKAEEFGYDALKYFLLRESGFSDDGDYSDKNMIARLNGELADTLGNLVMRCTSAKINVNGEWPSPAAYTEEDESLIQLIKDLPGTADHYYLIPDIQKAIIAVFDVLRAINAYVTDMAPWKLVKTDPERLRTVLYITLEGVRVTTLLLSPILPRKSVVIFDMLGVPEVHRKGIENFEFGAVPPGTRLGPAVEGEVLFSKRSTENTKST

One may read the IC50 as the concentration that gives 50% inhibition. High values mean lower potency, low ones higher potency. As a reminder, the EC50 is the concentration giving half of the maximal effect. Turning to `CC(Cc1nc2ccc(C(F)(F)F)cc2[nH]1)NCc1cc(Cl)cc(Cl)c1` (stereo not drawn) [Compound 1825, [(3,5-dichlorophenyl)methyl]({1-[6-(trifluoromethyl)-1H-1,3-benzodiazol-2-yl]propan-2-yl})amine], on MetRS (T. brucei), the midpoint of inhibition, the IC50, lay at 1560 nM. In addition, in the experiment with T. brucei, the EC50 was 3650 nM.
Regarding `CC(Cc1nc2cc3ccccc3cc2[nH]1)NCc1cc(Cl)cc(Cl)c1` (stereo not drawn) [Compound 1826, [(3,5-dichlorophenyl)methyl](1-{1H-naphtho[2,3-d]imidazol-2-yl}propan-2-yl)amine], at MetRS (T. brucei), the IC50 amounted to 454 nM. In addition, the EC50 in the experiment with T. brucei turned out to be 7940 nM.
Taken in the same sequence, the figures for `CC[C@@H](Cc1nc2ccc(Cl)cc2[nH]1)NCc1cc(Cl)cc(Cl)c1` [Compound 1827, [(2S)-1-(6-chloro-1H-1,3-benzodiazol-2-yl)butan-2-yl][(3,5-dichlorophenyl)methyl]amine] were 390 nM and 5020 nM.
As to `CC(C)[C@@H](Cc1nc2ccc(Cl)cc2[nH]1)NCc1cc(Cl)cc(Cl)c1` [Compound 1828, [(2R)-1-(6-chloro-1H-1,3-benzodiazol-2-yl)-3-methylbutan-2-yl][(3,5-dichlorophenyl)methyl]amine], on MetRS (T. brucei), the IC50 was more than 10000 nM. In the experiment with T. brucei, the EC50 was 7410 nM.
The compound `Clc1cc(Cl)cc(CNCCCc2nc3ccc(Cl)cc3[nH]2)c1` [Compound 1832, [3-(6-chloro-1H-1,3-benzodiazol-2-yl)propyl][(3,5-dichlorophenyl)methyl]amine] gave a 50% inhibitory concentration (IC50) against MetRS (T. brucei) of 243 nM. For the same compound, in the experiment on T. brucei, the concentration for a half-maximal effect (EC50) was 2150 nM.
In turn, `CC(=O)N(Cc1cc(Cl)cc(Cl)c1)N1CCCC(c2nc3cc(F)ccc3[nH]2)C1` (stereo not drawn) [Compound 1833, N-[(3,5-dichlorophenyl)methyl]-N-[3-(5-fluoro-1H-1,3-benzodiazol-2-yl)piperidin-1-yl]acetamide] registered a half-maximal inhibitory concentration (IC50) at MetRS (T. brucei) of more than 10000 nM. The EC50 in the experiment on T. brucei is more than 20000 nM.
On MetRS (T. brucei), `CC(=O)N(Cc1ccc(Cl)cc1Cl)C1CCCC(c2nc3nc(F)ccc3[nH]2)C1` (stereo not drawn) [Compound 1836, N-(2,4-dichlorobenzyl)-N-(3-(5-fluoro-1H-imidazo[4,5-b]pyridin-2-yl)cyclohexyl)acetamide] yielded a half-maximal inhibitory concentration (IC50) of 1430 nM. For the same compound, in the experiment on T. brucei, the EC50 came out at 7630 nM.
Compound `Clc1ccc(CN2CCC[C@H](c3nc4cc(Cl)ccc4[nH]3)C2)c(Cl)c1` [Compound 1837, (S)-5-chloro-2-(1-(2,4-dichlorobenzyl)piperidin-3-yl)-1H-benzo[d]imidazole] returned a half-inhibitory concentration (IC50) at MetRS (T. brucei) of 119 nM. In addition, the EC50 in the experiment on T. brucei amounted to 1340 nM.
As for `Clc1cc(Cl)cc(CN2CCC[C@@H](c3nc4cc(Cl)ccc4[nH]3)C2)c1` [Compound 1838, (R)-5-chloro-2-(1-(3,5-dichlorobenzyl)piperidin-3-yl)-1H-benzo[d]imidazole], at MetRS (T. brucei), the half-inhibitory concentration (IC50) was more than 10000 nM. Moreover, the EC50 with T. brucei came to 8570 nM.
The compound `Fc1ccc2[nH]c(C3CCCC(NCc4cc(Cl)cc(Cl)c4)C3)nc2c1` (stereo not drawn) [Compound 1839, N-(3,5-dichlorobenzyl)-3-(5-fluoro-1H-benzo[d]imidazol-2-yl) cyclohexanamine] had a half-inhibitory concentration (IC50) against MetRS (T. brucei) of 3680 nM. Further, the EC50 with T. brucei was found to be 2320 nM.
Turning to `Clc1cc(Cl)cc(CNC2CCCC(c3nc4cc(Cl)ccc4[nH]3)C2)c1` (stereo not drawn) [Compound 1840, 3-(5-chloro-1H-benzo[d]imidazol-2-yl)-N-(3,5-dichlorobenzyl) cyclohexanamine], half-maximal inhibition on MetRS (T. brucei) (IC50) required 580 nM. The EC50 with T. brucei came out at 1950 nM.
On MetRS (T. brucei), `Clc1cc(Cl)cc(CNC2CCCC(c3nc4cc(Cl)cnc4[nH]3)C2)c1` (stereo not drawn) [Compound 1841, 3-(6-chloro-3H-imidazo[4,5-b]pyridin-2-yl)-N-(3,5-dichlorobenzyl) cyclohexanamine] came in with an IC50 of 6300 nM. Moreover, the EC50 in the experiment with T. brucei came to 3690 nM.
Turning to `CC(=O)N(Cc1cc(Cl)cc(Cl)c1)C1CCCC(c2nc3cc(Cl)cnc3[nH]2)C1` (stereo not drawn) [Compound 1842, N-(3-(6-chloro-3H-imidazo[4,5-b]pyridin-2-yl)cyclohexyl)-N-(3,5-dichlorobenzyl)acetamide], the IC50 against MetRS (T. brucei) was more than 10000 nM. Besides, in the experiment on T. brucei, the EC50 came out at 8580 nM.
`Clc1cc(Cl)cc(CN[C@H]2CCN(c3nc4ccc(Cl)nc4[nH]3)C2)c1` [Compound 1845, (3S)-1-{5-chloro-3H-imidazo[4,5-b]pyridin-2-yl}-N-[(3,5-dichlorophenyl)methyl]pyrrolidin-3-amine] displayed an IC50 against MetRS (T. brucei) of 47 nM. Further, the EC50 in the experiment on T. brucei amounted to 1540 nM.
Taken in the same sequence, the figures for `Clc1ccc(CN[C@H]2CCN(c3nc4ccc(Cl)nc4[nH]3)C2)c(Cl)c1` [Compound 1846, (3S)-1-{5-chloro-3H-imidazo[4,5-b]pyridin-2-yl}-N-[(2,4-dichlorophenyl)methyl]pyrrolidin-3-amine] were 1640 nM and 11000 nM.
The compound `Clc1cc(Cl)cc(CN[C@@H]2CCN(c3nc4ccc(Cl)nc4[nH]3)C2)c1` [Compound 1847, (3R)-1-{5-chloro-3H-imidazo[4,5-b]pyridin-2-yl}-N-[(3,5-dichlorophenyl)methyl]pyrrolidin-3-amine] registered a half-inhibitory concentration (IC50) at MetRS (T. brucei) of 696 nM. Also, the concentration giving a half-maximal response (EC50) with T. brucei was 9010 nM.
Taken in the same sequence, the figures for `Clc1ccc(CN[C@@H]2CCN(c3nc4ccc(Cl)nc4[nH]3)C2)c(Cl)c1` [Compound 1848, (3R)-1-{5-chloro-3H-imidazo[4,5-b]pyridin-2-yl}-N-[(2,4-dichlorophenyl}methyl]pyrrolidin-3-amine] were 847 nM and 10600 nM.
For the compound `Clc1cc(Cl)cc(CNCCNc2nc3ncc(Cl)cc3[nH]2)c1` [Compound 1850, [2-({6-chloro-1H-imidazo[4,5-b]pyridin-2-yl}amino)ethyl][(3,5-dichlorophenyl)methyl]amine], at MetRS (T. brucei), the IC50 stood at 385 nM. Moreover, in the experiment with T. brucei, the EC50 was 3870 nM.
For the compound `O=C(Cc1cc(Cl)cc(Cl)c1)NCc1nc2ccc(Cl)cc2[nH]1` [Compound 1851, N-((6-chloro-1H-benzo[d]imidazol-2-yl)methyl)-2-(3,5-dichlorophenyl)acetamide], 81 nM corresponded to half-maximal inhibition on MetRS (T. brucei) (IC50). Moreover, the EC50 in the experiment on T. brucei was 3380 nM.
The compound `O=C(Cc1ccc(Cl)cc1Cl)NCc1nc2ccc(Cl)cc2[nH]1` [Compound 1852, N-[(6-chloro-1H-1,3-benzodiazol-2-yl)methyl]-2-(2,4-dichlorophenyl)acetamide] displayed an IC50 against MetRS (T. brucei) of 75 nM. For the same compound, the EC50 in the experiment with T. brucei came out at 5540 nM.
Taken in the same sequence, the figures for `Clc1cc(Cl)cc(CNCc2nc3ccc(Br)cc3[nH]2)c1` [Compound 1853, N-(3,5-dichlorobenzyl)(6-bromo-1H-benzo[d]imidazol-2-yl)methanamine] were more than 10000 nM and more than 20000 nM.
Compound `Clc1cc(Cl)cc(CN[C@@H]2CCC[C@H](c3nc4nc(Cl)ccc4[nH]3)C2)c1` [Compound 1854, (1R,3S)-3-(5-chloro-1H-imidazo[4,5-b]pyridin-2-yl)-N-(3,5-dichlorobenzyl)cyclohexanamine] displayed an IC50 on MetRS (T. brucei) of 106 nM. For the same compound, the 50% effective concentration (EC50) in the experiment with T. brucei came to 580 nM.
`Clc1cc(Cl)cc(CN[C@@H]2CCCN(c3nc4nc(Cl)ccc4[nH]3)C2)c1` [Compound 1855, (R)-1-(5-chloro-1H-imidazo[4,5-b]pyridin-2-yl)-N-(3,5-dichlorobenzyl) piperidin-3-amine] gave an IC50 at MetRS (T. brucei) of 192 nM. In addition, in the experiment with T. brucei, the EC50 is 999 nM.
The compound `Clc1ccc(CNC2CCCN(c3nc4nc(Cl)ccc4[nH]3)C2)c(Cl)c1` (stereo not drawn) [Compound 1857, 1-(5-chloro-1H-imidazo[4,5-b]pyridin-2-yl)-N-(2,4-dichlorobenzyl) piperidin-3-amine] yielded an IC50 against MetRS (T. brucei) of 72 nM. Moreover, the 50% effective concentration (EC50) in the experiment with T. brucei stood at 1480 nM.
